Laboratory results published in US5235061A, “Fungicidal (1H-1,2,4-triazolyl)disilaalkanes” (priority 1991, dated 1993).

Assays:
Test in all cases: In vitro percent disease control (radii of spore growth on agar)
Format in all cases: cell-based
[1] = tested on: Alternaria mali; conditions: for inhibition of growth at 50 ppm / inhibition of growth at 100 ppm: Alternaria mali, read-out: % controlled, Al.
How it was run: (§1)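 Compounds in acetone (10% of final volume) diluted with water to 100 and 50 ppm, then mixed into potato-sucrose-agar with each fungus spotted centrally. Incubated several days in a growth room; percent disease control derived from radii of spore growth.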

[2] = tested on: Rhizopus sp.; conditions: for inhibition of growth at 50 ppm / inhibition of growth at 100 ppm: Rhizopus, read-out: % controlled, Rhi. sp.
How it was run: as §1

[3] = tested on: Phytophthora capsisi; conditions: for inhibition of growth at 50 ppm / inhibition of growth at 100 ppm: Phytophthora, read-out: % controlled, Phy ca.
How it was run: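 Compounds dissolved in acetone (10% of final volume) then water at 100 ppm and 50 ppm, mixed into potato-sucrose-agar; fungus spotted at plate centre and incubated several days. Percent disease control derived from radii of spore growth.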

[4] = tested on: Physalospora baccae; conditions: for inhibition of growth at 50 ppm / inhibition of growth at 100 ppm: read-out: % controlled, Phy ba.
How it was run: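 Compounds at 100 and 50 ppm (10% acetone) mixed into potato-sucrose-agar, fungus spotted centrally and grown several days in a growth room. Percent disease control derived from radii of spore growth.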

[5] = tested on: Botryosphaeria dothidea Macrophoma sp.; conditions: for inhibition of growth at 50 ppm / inhibition of growth at 100 ppm: Botryosphaeria dothidea, read-out: % controlled, Bo.do (Ma.)
How it was run: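 Compounds (100 and 50 ppm, 10% acetone in water) were mixed into potato-sucrose-agar and the fungus was spotted centrally, then incubated several days in a growth room. Percent disease control came from radii of spore growth.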

[6] = tested on: Glomerella cingulata; conditions: for inhibition of growth at 50 ppm / inhibition of growth at 100 ppm: Colletotrichum gloeosporioides, read-out: % controlled, Glo.
How it was run: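 Compounds were dissolved in acetone (10% of final volume) plus water at 100 ppm and 50 ppm and mixed into potato-sucrose agar. G. cingulata was spotted centrally and incubated for several days in a growth room. Percent disease control was derived from the radii of spore growth.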

[7] = tested on: Pyricalaria oryzae; conditions: for inhibition of growth at 50 ppm: read-out: % controlled, Py. or., 50 ppm; for inhibition of growth at 100 ppm: read-out: % controlled, Py. or., 100 ppm
How it was run: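 Compounds at 100 ppm and 50 ppm (10% acetone in water) mixed into potato-sucrose-agar, P. oryzae spotted centrally and incubated several days. Percent disease control derived from radii of spore growth.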

[8] = tested on: Rhizoctonia solani; conditions: for inhibition of growth at 50 ppm / inhibition of growth at 100 ppm: Rhizoctonia solani, read-out: % controlled, Rhy. so.
How it was run: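 Test compounds at 100 ppm and 50 ppm (acetone 10% of final volume, then water) were mixed into potato-sucrose-agar, and the fungus was spotted at the dish centre. Dishes were incubated several days in a growth room. Percent disease control was derived from the radii of spore growth.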

[9] = tested on: Fusarium moniliforme
How it was run: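 Compounds in 10% acetone/water at 100 and 50 ppm were mixed into potato-sucrose-agar, with Fusarium moniliforme spotted centrally. After several days' incubation, percent disease control was derived from radii of spore growth.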

[10] = tested on: Botry tris cinerea; conditions: for inhibition of growth at 50 ppm / inhibition of growth at 100 ppm: read-out: % controlled, Bo ci.
How it was run: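 Compounds at 100 and 50 ppm (acetone 10% of final volume, rest water) mixed into potato-sucrose agar; Botrytis cinerea spotted at dish centre. After several days' incubation, percent disease control calculated from radii of spore growth.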

Structure (SMILES)	% controlled, Fu. mo. ([9]; 50 ppm)	% controlled, Fu. mo. ([9]; 100 ppm)	inhibition of growth at 50 ppm ([1]; 50 ppm)	inhibition of growth at 100 ppm ([1]; 100 ppm)	inhibition of growth at 50 ppm ([2]; 50 ppm)	inhibition of growth at 100 ppm ([2]; 100 ppm)	inhibition of growth at 50 ppm ([3]; 50 ppm)	inhibition of growth at 100 ppm ([3]; 100 ppm)	inhibition of growth at 50 ppm ([4]; 50 ppm)	inhibition of growth at 100 ppm ([4]; 100 ppm)	inhibition of growth at 50 ppm ([5]; 50 ppm)	inhibition of growth at 100 ppm ([5]; 100 ppm)	inhibition of growth at 50 ppm ([6]; 50 ppm)	inhibition of growth at 100 ppm ([6]; 100 ppm)	inhibition of growth at 50 ppm [7]	inhibition of growth at 100 ppm [7]	inhibition of growth at 50 ppm ([8]; 50 ppm)	inhibition of growth at 100 ppm ([8]; 100 ppm)	inhibition of growth at 50 ppm ([10]; 50 ppm)	inhibition of growth at 100 ppm ([10]; 100 ppm)	also measured
C=CC[Si](C[Si](CC)(Cn1cncn1)c1ccc(OCC)cc1)(c1ccc(F)cc1)c1ccc(F)cc1 (centres unmarked) [6-(4-ethoxyphenyl)-4,4-bis(4-fluorophenyl)-6-ethyl-4,6-disila-7-(1H-1,2,4-triazol-1-yl)-1-heptane]	90%	90%																			% controlled, Al. ([1]; 50 ppm): 100%; % controlled, Al. ([1]; 100 ppm): 100%; % controlled, Rhi. sp. ([2]; 50 ppm): 80%; % controlled, Rhi. sp. ([2]; 100 ppm): 90%; % controlled, Phy ca. ([3]; 50 ppm): 80%; % controlled, Phy ca. ([3]; 100 ppm): 90%; % controlled, Phy ba. ([4]; 50 ppm): 60%; % controlled, Phy ba. ([4]; 100 ppm): 75%; % controlled, Bo.do (Ma.) ([5]; 50 ppm): 65%; % controlled, Bo.do (Ma.) ([5]; 100 ppm): 69%; % controlled, Glo. ([6]; 50 ppm): 80%; % controlled, Glo. ([6]; 100 ppm): 80%; % controlled, Py. or. ([7]; 50 ppm): 70%; % controlled, Py. or. ([7]; 100 ppm): 75%; % controlled, Rhy. so. ([8]; 50 ppm): 100%; % controlled, Rhy. so. ([8]; 100 ppm): 100%; % controlled, Bo ci. ([10]; 50 ppm): 60%; % controlled, Bo ci. ([10]; 100 ppm): 60%
C=CC[Si](C[Si](C)(Cn1cncn1)c1ccc(OCC)cc1)(c1ccccc1)c1ccc(-c2ccccc2)cc1 (centres unmarked) [6-(4-ethoxyphenyl)-6-methyl-4-phenyl-4-(4-phenylphenyl-4,6-disila-7-(1H-1,2,4-triazol-1-yl)-1-heptane]	80%	80%	100%	100%	75%	75%	60%	70%	100%	100%	100%	100%	80%	90%	75%	85%	100%	100%	80%	85%	
C=CC[Si](C)(Cn1cncn1)C[Si](CC=C)(CC=C)c1ccc(F)cc1 (centres unmarked) [6-(4-fluorophenyl)-4-methyl-6-(2-propenyl)-4,6-disila-4-(1H-1,2,4-triazol-1-ylmethyl)-1,8-nonadiene]	60%	60%	78%	90%	56%	58%	55%	60%	90%	95%	79%	90%	82%	85%	100%	100%	96%	96%	90%	95%	
C=CC[Si](C)(Cn1cncn1)C[Si](CC=C)(c1ccccc1)c1ccc(F)cc1 (centres unmarked) [6-(4-fluorophenyl)-4-methyl-6-phenyl-4,6-disila-4-(1H-1,2,4-triazol-1-ylmethyl)-1,8-nonadiene]	60%	66%	55%	92%	50%	50%	65%	70%	82%	82%	79%	79%	80%	85%	90%	90%	96%	96%	60%	70%	
